Test: Human HepG2 cell viability assay in 384 well format
Format: toxicity, cell-based
Parameters: dose 125 nL, time 70.5 hour; concentration not given beside the values
Conditions: HepG2 cells, read-out: Inhibition

In order of falling cytotoxicity at 70.5 h:
1. O=C([C@H]1COC[C@H]2CN(C3CCCC3)C[C@H]21)N1CCCO1  41.4%
2. COCCNC(=O)c1ccc2ccc(N3CCN(CC4CC4)CC3)n2c1  24.5%
3. CNC(=O)CN1CCCC12CCN(C(=O)c1cccc(F)c1)CC2  24.1%
4. COCCN1CCC2(CCN(C(=O)c3ccc(F)cc3)CC2)C1=O  18.4%
5. CC(=O)N1[C@H](Cn2cncn2)C[C@@H]2CN(Cc3ccccn3)CC[C@@H]21  17.3%
6. CN(C)CC(=O)N1CCC2(CC1)CN(Cc1cccnc1)C(=O)CO2  17.2%
7. CN(C)CCN1CCC2(CCN(C(=O)c3cccc(F)c3)CC2)C1=O  15.4%
8. CN1[C@H](CN2CCCC2)C[C@@H]2CN(C(=O)c3ccsc3)CC[C@@H]21  11.2%
9. Cc1ccc(CN2C[C@@H]3C[C@H](C(=O)NCC4CC4)N(C)[C@@H]3C2)o1  10.1%
10. CN(C)C(=O)CN1C(=O)CCC12CCN(Cc1cccs1)CC2  9.34%
11. O=C(Cc1cccnc1)N1CCC2(CC1)CCN(C1CCOC1)C2 (stereo not drawn)  8.42%
12. Cn1ccnc1CN1CCC2(CC1)CN(c1ccccn1)CCO2  8.31%
13. Fc1ccc(CN2CCO[C@H]3[C@H](Oc4ccccn4)CC[C@@H]32)cc1  7.26%
14. CNC(=O)[C@H]1C[C@@H]2CN(S(=O)(=O)c3ccc(F)cc3)C[C@@H]2N1C  5.56%
15. Cc1ccc2c(c1)C1(CC2)CCN(CC(=O)O)CC1  5.44%
16. CN1CCN(Cc2ccncc2)C(=O)C12CCN(Cc1ccsc1)CC2  2.26%
17. CNC(=O)[C@H]1C[C@@H]2CN(S(=O)(=O)c3cccc(C)c3)C[C@@H]2N1C  2.15%
18. O=C(C1CC=CC1)N1CCC2(CCC(=O)N2Cc2cccc(F)c2)CC1  2.09%
19. COc1cccc(CC(=O)N2CCN(C)c3ncccc3C2)c1  1.87%
20. CN1CCN(Cc2cn3c(n2)CN(C(=O)c2ccco2)CC3)CC1  1.76%
21. CNC(=O)[C@H]1C[C@@H]2CN(S(=O)(=O)c3cccc(F)c3)C[C@@H]2N1C  1.47%
22. CO[C@@H]1CCN(c2ncccn2)[C@H]1Cc1ccccc1  1.42%
23. O=C1CC2(CCN(Cc3ccccn3)C2)CN1c1cccnc1 (stereo not drawn)  1.41%
24. CC(C)N(C)[C@@H]1CCN(c2ncccn2)[C@H]1Cc1ccncc1  1.38%
25. CC(=O)N1[C@H](Cn2cncn2)C[C@@H]2CN(c3ncccn3)CC[C@@H]21  1.33%
26. CN(C)Cc1cc(=O)n2c(n1)CN(C(=O)Cc1cccs1)CCC2  1.23%
27. O=C(C1CC=CC1)N1CCc2ncnc(-c3ccncc3)c2CC1  0.995%
28. COCC(=O)N1CC[C@@H](OCC2CC2)[C@@H]1Cc1cccnc1  0.787%
29. C[C@@H](N)C(=O)N1CC2(CCNCC2)c2cc(Cl)ccc21  0.763%
30. O=C(NC1CC1)N1CC[C@@H](O)[C@@H]1Cc1ccccc1  0.741%
31. CC(C)CN1CCC2(CCN(Cc3nccs3)CC2)C1=O  0.492%
32. O=C(c1ccoc1)N1C[C@H]2CC[C@@]3(N=C(c4ccccc4)NC3=O)[C@H]2C1  0.375%
33. Fc1cccc(-c2nnn3c2COC(CNCc2ccsc2)C3)c1 (stereo not drawn)  0.277%
34. O=C(c1ccc[nH]1)N1CC[C@@H](OCC2CC2)[C@@H]1Cc1cccnc1  0.146%
35. Cc1occc1C(=O)N1CCC2(CCCN(Cc3cccs3)C2)C1 (stereo not drawn)  0.121%
36. O=C(c1cccs1)N1CCCn2c(nc(CN3CCCC3)cc2=O)C1  -0.229%
37. CCN1CCOCC12CCN(C(=O)C1CCCC1)CC2  -0.25%
38. CC(=O)NCC(=O)NCC1Cn2nnc(-c3cccc(F)c3)c2CO1 (stereo not drawn)  -0.435%
39. CCN1C[C@@H]2CN(C(=O)c3ccsc3)C[C@@H]2C1=O  -0.46%
40. COCC(=O)N1CCN(C)c2ncccc2C1  -0.482%
41. Cc1ncnc2c1CCN(C(=O)c1cnccn1)CC2  -0.588%
42. CNC(=O)[C@H]1C[C@@H]2CN(S(=O)(=O)c3ccc(C)cc3)C[C@@H]2N1C  -1.06%
43. O=C(c1ccnnc1)N1CC[C@H](OCC2CC2)[C@@H]1Cc1ccncc1  -1.15%
44. O=C([C@@H]1COC[C@H]2CN(C3CCOCC3)C[C@H]21)N1CCOCC1  -1.42%
45. Cc1cccc(CN2CCO[C@H]3[C@H](Oc4ccccn4)CC[C@@H]32)n1  -1.62%
46. CNC(=O)[C@@H]1C[C@H]2CN(Cc3ccc(C)s3)C[C@H]2N1C(C)=O  -1.67%
47. CC(=O)N1CCOC2(CCCN(Cc3ccc(N(C)C)cc3)C2)C1 (stereo not drawn)  -2.02%
48. CC1CCN(C(=O)[C@@H]2CC[C@@H]3[C@@H](CCN3c3ncc(F)cn3)O2)CC1  -2.26%
49. Cc1cccc(CN2C[C@@H]3CN(C(=O)c4ccnnc4)C[C@@H]3C2=O)c1  -2.38%
50. CC(=O)N1CC2(CCN(C(=O)c3ccoc3)C2)C1  -2.66%
51. CC(=O)N1[C@H](Cn2cncn2)C[C@@H]2CN(Cc3cccnc3)CC[C@@H]21  -2.89%
52. CN1CCN(Cc2cn3c(n2)CN(C(=O)c2ccccn2)CC3)CC1  -2.89%
53. O=C(C1CC=CC1)N1CCC2(CCN(Cc3cccc(F)c3)CC2)C1  -3.05%
54. Cc1cccc(CN2C[C@@H]3CN(C(=O)c4conc4C)C[C@@H]3C2=O)c1  -3.16%
55. COCCN1C[C@H]2CCN(c3ncccn3)CC[C@H]2S1(=O)=O  -3.17%
56. CN(C)C(=O)COCc1cncc2c1CCN(Cc1ccccc1)C2  -3.3%
57. Cc1noc(C)c1CN1CCCC2(CCN(CC3CCCC3)C2)C1 (stereo not drawn)  -3.39%
58. Cc1cccc(CN2CCCC3(CCN(c4cccnc4)C3=O)C2)n1 (stereo not drawn)  -3.53%
59. O=C(NCC1CC1)[C@@H]1CCO[C@@H]2CCN(Cc3ccc(F)cc3)C[C@H]21  -4.34%
60. O=C1N(c2ccsc2)CCC12CCCN(Cc1ccccn1)C2 (stereo not drawn)  -4.36%
61. CCN(CC)CCN1CCO[C@H]2[C@@H](OCc3ccccn3)CC[C@@H]21  -4.9%
62. COCC1CN(Cc2ccc(OC)cc2)Cc2nnn(CC3CC3)c21 (stereo not drawn)  -4.99%
63. Cc1ccc(CN2CCOC3(CCCN(C(=O)c4ccco4)C3)C2)o1 (stereo not drawn)  -5.05%
64. COCC(=O)N1CC[C@@H]2CN(Cc3ccccc3)S(=O)(=O)[C@@H]2CC1  -5.37%
65. O=C(Cc1cccnc1)N1CCC2(CC1)CCN(C1CCOCC1)CC2  -5.53%
66. COCCNC(=O)c1ccc2ccc(N(C)CC3CC3)n2c1  -5.92%
67. COCC(=O)N1C[C@H]2CCCC(OCc3cccnc3)[C@H]2C1 (stereo partly drawn)  -6.29%
68. CN(C)CCN1C(=O)CCC12CCN(C(=O)CC1CC1)CC2  -6.33%
69. CN(C)CCN1CCCC12CCN(C(=O)c1ccco1)CC2  -6.82%
70. Cc1csc([C@H]2C[C@@H]3CCN(Cc4cnn(C)c4)C[C@H]3O2)n1  -7.09%
71. CN(C)C(=O)N1CCN(C)c2ncccc2C1  -7.19%
72. O=C1N(CC2CCCC2)CCC12CCN(c1ncc(F)cn1)CC2  -7.22%
73. COC(=O)N1CC2(CCNCC2)c2cc(Cl)ccc21  -7.27%
74. c1ccc(N2CCCC3(CCN(Cc4ccsc4)C3)C2)nc1 (stereo not drawn)  -7.47%
75. CCc1ccc(CN2CC[C@H]3[C@H]2CC(=O)N3Cc2cccc(C)n2)o1  -7.64%
76. COc1cccc(CN2CCC3(CC2)CCN(C(=O)[C@@H]2CCCO2)C3)c1  -8.83%
77. CCN1CCC2(CCN(c3ncccn3)CC2)C1=O  -8.88%
78. NC(=O)N1CC[C@H](O)[C@@H]1Cc1ccccc1  -8.95%
79. CC[C@@H]1N(Cc2ccc(F)cc2)CCC[C@]12CCC(=O)N2C  -9.15%
80. CC(=O)N1CCN(Cc2cccs2)CC2(CC(=O)N(C)C2)C1 (stereo not drawn)  -9.26%
81. Cc1cccc(CN2C(=O)CCC23CCNCC3)n1  -9.48%
82. O=C(C1CCCO1)N1C[C@@H]2CCN(c3cnccn3)C[C@@H]2C1 (stereo partly drawn)  -9.71%
83. O=C(c1ccccc1F)N1CC2(CCNCC2)c2cc(Cl)ccc21  -9.74%
84. C[C@H]1C(=O)NC[C@H]2CN(CCc3ccccc3)C[C@H]21  -9.77%
85. Cc1ccccc1C(=O)N1CCC2(CCCN2CCN(C)C)CC1  -9.86%
86. C[C@@H]1C(=O)NC[C@H]2CN(Cc3ccc4c(c3)OCO4)C[C@H]21  -10.2%
87. Cc1cnc(N2CCC3(CCN(CC4CCCC4)C3=O)CC2)nc1  -11%
88. CC[C@@H]1N(Cc2ccc(C)s2)CCC[C@]12CCC(=O)N2C  -11.2%
89. CC(=O)N1CCN(Cc2nccs2)CC2(CC(=O)N(C)C2)C1 (stereo not drawn)  -11.2%
90. O=C(CC1CC1)N1CCC2(CC1)CN(Cc1cccnc1)C(=O)CO2  -12.2%
91. Cc1ccc(C(=O)N2CCC3(CCC(C(=O)NCC4CC4)O3)CC2)o1 (stereo not drawn)  -12.5%
92. Cn1cccc1C(=O)N1CCC2(CC1)CC(N1CCOCC1)C2  -12.5%
93. Cc1ccc(CN2C[C@H]3C[C@H](C(=O)NCC4CC4)N(C)[C@H]3C2)o1  -12.6%
94. CC1c2ncc(COc3cccnc3)n2CCN1C(=O)Cc1ccco1 (stereo not drawn)  -13.8%
95. COc1ccc(CN2CCC3(CC2)CC(CC(=O)NC(C)C)CO3)cc1 (stereo not drawn)  -14.4%
96. CN(C)C(=O)N1CCC2(CCCN(CCOc3ccccc3)C2)C1 (stereo not drawn)  -14.6%
97. O=C(c1cccc(F)c1)N1CCC2(CC1)CC(N1CCOCC1)C2  -14.8%
98. CC[C@@H]1N(Cc2cc(OC)cc(OC)c2)CCC[C@]12CCC(=O)N2C  -16.6%
99. COCCN1CC[C@H](O)[C@@H]1Cc1ccccc1  -16.7%
100. Cn1cc(N2CC3(CCN(CC4CCOCC4)CC3)OCC2=O)cn1  -17.2%
101. CC(C)(C)C(=O)N1CCC2(COCc3cnc(N4CCOCC4)nc32)C1 (stereo not drawn)  -19.1%
102. O=S(=O)(C1CC1)N1C[C@H]2CCC[C@@]2(COc2ccccn2)C1  -19.4%
103. O=C(c1cscn1)N1CCC2(CCCN(CCOc3ccccc3)C2)C1 (stereo not drawn)  -19.6%

From ChEMBL document CHEMBL3507680, “University of Dundee, Gates Library screen for HepG2 cell viability”
